The data set has as its target T1, thermolysin (Bacillus thermoproteolyticus, UniProt P00800).
T1 sequence (P00800 233-548): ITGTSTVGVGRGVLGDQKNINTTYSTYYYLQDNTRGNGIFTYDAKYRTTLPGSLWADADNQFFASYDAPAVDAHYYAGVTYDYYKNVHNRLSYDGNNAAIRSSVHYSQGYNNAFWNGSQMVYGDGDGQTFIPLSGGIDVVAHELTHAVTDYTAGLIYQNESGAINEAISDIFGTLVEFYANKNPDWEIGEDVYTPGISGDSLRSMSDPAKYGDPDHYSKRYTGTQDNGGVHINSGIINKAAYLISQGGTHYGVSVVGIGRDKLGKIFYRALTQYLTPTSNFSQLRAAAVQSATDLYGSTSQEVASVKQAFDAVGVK
Put plainly: Proteolytic stability: half-life to thermolysin degradation. Format: in vitro ADME. Conditions: for Change in Half-Life to Thermolysin Degradation: glyco-variant minus its corresponding unglycosylated CBM (e.g. 2-1), *** not used in the correlation plot; for half-life: thermolysin (isolated protease), thermolysin degradation, mean of three trials ± SD, procedures as described previously (ESI ref 18). As for the experimental part:
All error bars reported are standard deviations of data achieved from three separate trials.
cellulose that were determined in accordance with our procedures as described previously 18.
The results are presented as mean of three trials ± SD. *Denotes an averaged value of four trials

Bridge positions count the residues as written; N and C are the ends. Peptide text beside a SMILES is read from it. * marks the point of attachment. αMan = OC[C@H]1O[C@H](*)[C@@H](O)[C@@H](O)[C@@H]1O

The half-life is the time in which the quantity being followed falls by half.

Turning to `CC[C@H](C)[C@@H]1NC(=O)CNC(=O)CNC(=O)[C@@H](NC(=O)[C@H](CCC(N)=O)NC(=O)CNC(=O)[C@H](Cc2ccc(O)cc2)NC(=O)[C@H](C)NC(=O)[C@H](CO[C@H]2O[C@H](CO)[C@@H](O)[C@H](O)[C@@H]2O)NC(=O)[C@H](CCC(N)=O)NC(=O)[C@@H](N)[C@@H](C)O)CSSC[C@@H]2NC(=O)[C@H]([C@@H](C)O)NC(=O)[C@H]([C@@H](C)O)NC(=O)CNC(=O)[C@H](CO)NC(=O)[C@H](C)NC(=O)[C@H](CSSC[C@@H](C(=O)N[C@@H](CC(C)C)C(=O)O)NC(=O)[C@H](CCC(N)=O)NC(=O)[C@H](CO)NC(=O)[C@H](Cc3ccc(O)cc3)NC(=O)[C@H](Cc3ccc(O)cc3)NC(=O)[C@@H]3CCCN3C(=O)[C@H](CC(N)=O)NC(=O)[C@H](CC(C)C)NC(=O)[C@H](C(C)C)NC(=O)[C@H](CCC(N)=O)NC2=O)NC(=O)[C@H](C(C)C)NC(=O)[C@H]([C@@H](C)O)NC(=O)[C@@H]2CCCN2C(=O)CNC(=O)[C@H](CO)NC(=O)[C@H](Cc2ccc(O)cc2)NC(=O)CNC1=O` [CBM variant 9] (H-TQS(αMan)AYGQCGGIGYSGPTVCASGTTCQVLNPYYSQCL-OH; disulfide 8-25, 19-35), the “Change in Half-Life to Thermolysin Degradation” value (shortened to “Change in Half-Life”) came out at 25.8 min and the half-life was 39 ± 3 min.
`CC[C@H](C)[C@@H]1NC(=O)CNC(=O)CNC(=O)[C@@H](NC(=O)[C@H](CCC(N)=O)NC(=O)CNC(=O)[C@H](C)NC(=O)[C@H](Cc2c[nH]cn2)NC(=O)[C@H](CO)NC(=O)[C@H](CCC(N)=O)NC(=O)[C@@H](N)[C@@H](C)O)CSSC[C@@H]2NC(=O)[C@H]([C@@H](C)O)NC(=O)[C@H]([C@@H](C)O)NC(=O)CNC(=O)[C@H](CO)NC(=O)[C@H](C)NC(=O)[C@H](CSSC[C@@H](C(=O)N[C@@H](CC(C)C)C(=O)O)NC(=O)[C@H](CCC(N)=O)NC(=O)[C@H](CO)NC(=O)[C@H](Cc3ccc(O)cc3)NC(=O)[C@H](Cc3ccc(O)cc3)NC(=O)[C@@H]3CCCN3C(=O)[C@H](CC(N)=O)NC(=O)[C@H](CC(C)C)NC(=O)[C@H](C(C)C)NC(=O)[C@H](CCC(N)=O)NC2=O)NC(=O)[C@H](C(C)C)NC(=O)[C@H]([C@@H](C)O)NC(=O)[C@@H]2CCCN2C(=O)CNC(=O)[C@H](CO)NC(=O)[C@H](Cc2ccc(O)cc2)NC(=O)CNC1=O` [CBM variant 10] (H-TQSHAGQCGGIGYSGPTVCASGTTCQVLNPYYSQCL-OH; disulfide 8-25, 19-35) gave a half-life of 4.8 ± 1.2 min.
`CC[C@H](C)[C@@H]1NC(=O)CNC(=O)CNC(=O)[C@@H](NC(=O)[C@H](CCC(N)=O)NC(=O)CNC(=O)[C@H](C)NC(=O)[C@H](Cc2c[nH]cn2)NC(=O)[C@H](CO[C@H]2O[C@H](CO)[C@@H](O)[C@H](O)[C@@H]2O)NC(=O)[C@H](CCC(N)=O)NC(=O)[C@@H](N)[C@@H](C)O)CSSC[C@@H]2NC(=O)[C@H]([C@@H](C)O)NC(=O)[C@H]([C@@H](C)O)NC(=O)CNC(=O)[C@H](CO)NC(=O)[C@H](C)NC(=O)[C@H](CSSC[C@@H](C(=O)N[C@@H](CC(C)C)C(=O)O)NC(=O)[C@H](CCC(N)=O)NC(=O)[C@H](CO)NC(=O)[C@H](Cc3ccc(O)cc3)NC(=O)[C@H](Cc3ccc(O)cc3)NC(=O)[C@@H]3CCCN3C(=O)[C@H](CC(N)=O)NC(=O)[C@H](CC(C)C)NC(=O)[C@H](C(C)C)NC(=O)[C@H](CCC(N)=O)NC2=O)NC(=O)[C@H](C(C)C)NC(=O)[C@H]([C@@H](C)O)NC(=O)[C@@H]2CCCN2C(=O)CNC(=O)[C@H](CO)NC(=O)[C@H](Cc2ccc(O)cc2)NC(=O)CNC1=O` [CBM variant 11] (H-TQS(αMan)HAGQCGGIGYSGPTVCASGTTCQVLNPYYSQCL-OH; disulfide 8-25, 19-35): the “Change in Half-Life” value stood at 6 min and the half-life is 10.8 ± 1.8 min.
Turning to `CC[C@H](C)[C@@H]1NC(=O)CNC(=O)CNC(=O)[C@@H](NC(=O)[C@H](CCC(N)=O)NC(=O)CNC(=O)[C@H](Cc2ccc(O)cc2)NC(=O)[C@H](Cc2c[nH]cn2)NC(=O)[C@@H](NC(=O)[C@H](CCC(N)=O)NC(=O)[C@@H](N)[C@@H](C)O)[C@@H](C)O)CSSC[C@@H]2NC(=O)[C@H]([C@@H](C)O)NC(=O)[C@H]([C@@H](C)O)NC(=O)CNC(=O)[C@H](CO)NC(=O)[C@H](C)NC(=O)[C@H](CSSC[C@@H](C(=O)N[C@@H](CC(C)C)C(=O)O)NC(=O)[C@H](CCC(N)=O)NC(=O)[C@H](CO)NC(=O)[C@H](Cc3ccc(O)cc3)NC(=O)[C@H](Cc3ccc(O)cc3)NC(=O)[C@@H]3CCCN3C(=O)[C@H](CC(N)=O)NC(=O)[C@H](CC(C)C)NC(=O)[C@H](C(C)C)NC(=O)[C@H](CCC(N)=O)NC2=O)NC(=O)[C@H](C(C)C)NC(=O)[C@H]([C@@H](C)O)NC(=O)[C@@H]2CCCN2C(=O)CNC(=O)[C@H](CO)NC(=O)[C@H](Cc2ccc(O)cc2)NC(=O)CNC1=O` [CBM variant 12] (H-TQTHYGQCGGIGYSGPTVCASGTTCQVLNPYYSQCL-OH; disulfide 8-25, 19-35), the half-life is 21.6 ± 1.2 min.
For `CC[C@H](C)[C@@H]1NC(=O)CNC(=O)CNC(=O)[C@@H](NC(=O)[C@H](CCC(N)=O)NC(=O)CNC(=O)[C@H](Cc2ccc(O)cc2)NC(=O)[C@H](Cc2c[nH]cn2)NC(=O)[C@@H](NC(=O)[C@H](CCC(N)=O)NC(=O)[C@@H](N)[C@@H](C)O)[C@@H](C)O[C@H]2O[C@H](CO)[C@@H](O)[C@H](O)[C@@H]2O)CSSC[C@@H]2NC(=O)[C@H]([C@@H](C)O)NC(=O)[C@H]([C@@H](C)O)NC(=O)CNC(=O)[C@H](CO)NC(=O)[C@H](C)NC(=O)[C@H](CSSC[C@@H](C(=O)N[C@@H](CC(C)C)C(=O)O)NC(=O)[C@H](CCC(N)=O)NC(=O)[C@H](CO)NC(=O)[C@H](Cc3ccc(O)cc3)NC(=O)[C@H](Cc3ccc(O)cc3)NC(=O)[C@@H]3CCCN3C(=O)[C@H](CC(N)=O)NC(=O)[C@H](CC(C)C)NC(=O)[C@H](C(C)C)NC(=O)[C@H](CCC(N)=O)NC2=O)NC(=O)[C@H](C(C)C)NC(=O)[C@H]([C@@H](C)O)NC(=O)[C@@H]2CCCN2C(=O)CNC(=O)[C@H](CO)NC(=O)[C@H](Cc2ccc(O)cc2)NC(=O)CNC1=O` [CBM variant 13] (H-TQT(αMan)HYGQCGGIGYSGPTVCASGTTCQVLNPYYSQCL-OH; disulfide 8-25, 19-35), the “Change in Half-Life” value was determined as 46.8 min and the half-life is 68.4 ± 10.8 min.
`CC[C@H](C)[C@@H]1NC(=O)CNC(=O)CNC(=O)[C@@H](NC(=O)[C@H](CCC(N)=O)NC(=O)CNC(=O)[C@H](Cc2ccc(O)cc2)NC(=O)[C@H](Cc2c[nH]cn2)NC(=O)[C@H](CS)NC(=O)[C@H](CCC(N)=O)NC(=O)[C@@H](N)[C@@H](C)O)CSSC[C@@H]2NC(=O)[C@H]([C@@H](C)O)NC(=O)[C@H]([C@@H](C)O)NC(=O)CNC(=O)[C@H](CO)NC(=O)[C@H](C)NC(=O)[C@H](CSSC[C@@H](C(=O)N[C@@H](CC(C)C)C(=O)O)NC(=O)[C@H](CCC(N)=O)NC(=O)[C@H](CO)NC(=O)[C@H](Cc3ccc(O)cc3)NC(=O)[C@H](Cc3ccc(O)cc3)NC(=O)[C@@H]3CCCN3C(=O)[C@H](CC(N)=O)NC(=O)[C@H](CC(C)C)NC(=O)[C@H](C(C)C)NC(=O)[C@H](CCC(N)=O)NC2=O)NC(=O)[C@H](C(C)C)NC(=O)[C@H]([C@@H](C)O)NC(=O)[C@@H]2CCCN2C(=O)CNC(=O)[C@H](CO)NC(=O)[C@H](Cc2ccc(O)cc2)NC(=O)CNC1=O` [CBM variant 14] (H-TQCHYGQCGGIGYSGPTVCASGTTCQVLNPYYSQCL-OH; disulfide 8-25, 19-35) gave a half-life of 10.8 ± 2.4 min.
